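Each compound was tested at five concentrations against cells in 96-well plates for 48 hours. Here, GI50 denotes the concentration required for 50% inhibition of growth. TGI marks complete inhibition of growth.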
Assays:
Test in all cases: inhibition of tumour cell growth, NCI panel, 48 h
TK-10 renal = test system: TK-10 renal
NCI-H522 lung = test system: NCI-H522 lung
MOLT-4 leukemia = test system: MOLT-4 leukemia
A549 NSCLC = test system: A549 NSCLC
CCRF-CEM leukemia = test system: CCRF-CEM leukemia
NCI-H226 lung = test system: NCI-H226 lung
HOP-92 NSCLC = test system: HOP-92 NSCLC
EKVX NSCLC = test system: EKVX NSCLC
M14 melanoma = test system: M14 melanoma
PC-3 prostate = test system: PC-3 prostate
HCC-2998 colon = test system: HCC-2998 colon
SNB-19 CNS = test system: SNB-19 CNS
HT29 colon = test system: HT29 colon
SK-MEL-28 melanoma = test system: SK-MEL-28 melanoma
MCF7 breast = test system: MCF7 breast
SR leukemia = test system: SR leukemia
786-0 renal = test system: 786-0 renal
OVCAR-3 ovarian = test system: OVCAR-3 ovarian
HCT-116 colon = test system: HCT-116 colon
HOP-62 NSCLC = test system: HOP-62 NSCLC
KM12 colon = test system: KM12 colon
SF-539 CNS = test system: SF-539 CNS
HS 578T breast = test system: HS 578T breast
NCI-H23 lung = test system: NCI-H23 lung
UO-31 renal = test system: UO-31 renal
MALME-3M melanoma = test system: MALME-3M melanoma
RPMI-8226 leukemia = test system: RPMI-8226 leukemia
SK-MEL-2 melanoma = test system: SK-MEL-2 melanoma
HL-60(TB) leukemia = test system: HL-60(TB) leukemia
K-562 leukemia = test system: K-562 leukemia
LOX IMVI melanoma = test system: LOX IMVI melanoma
SN12C renal = test system: SN12C renal
SF-295 CNS = test system: SF-295 CNS
SF-268 CNS = test system: SF-268 CNS
NCI-H460 lung = test system: NCI-H460 lung
U251 CNS = test system: U251 CNS
DU-145 prostate = test system: DU-145 prostate
OVCAR-8 ovarian = test system: OVCAR-8 ovarian
CAKI-1 renal = test system: CAKI-1 renal
A498 renal = test system: A498 renal
SNB-75 CNS = test system: SNB-75 CNS
NCI/ADR-RES ovarian = test system: NCI/ADR-RES ovarian
BT-549 breast = test system: BT-549 breast
T-47D breast = test system: T-47D breast
COLO 205 colon = test system: COLO 205 colon
SW-620 colon = test system: SW-620 colon
UACC-62 melanoma = test system: UACC-62 melanoma
SK-OV-3 ovarian = test system: SK-OV-3 ovarian
MDA-MB-435 = test system: MDA-MB-435
SK-MEL-5 melanoma = test system: SK-MEL-5 melanoma
MDA-MB-231 breast = test system: MDA-MB-231 breast
ACHN renal = test system: ACHN renal
IGROV1 ovarian = test system: IGROV1 ovarian
OVCAR-5 ovarian = test system: OVCAR-5 ovarian
RXF 393 renal = test system: RXF 393 renal
HCT-15 colon = test system: HCT-15 colon
OVCAR-4 ovarian = test system: OVCAR-4 ovarian
UACC-257 melanoma = test system: UACC-257 melanoma

C#Cc1nc(C2=C(C)C(O)/C(=N/O)C2)cs1 (stereo unspecified)
GI50 (TK-10 renal): > 100 µM
TGI (TK-10 renal): > 100 µM
GI50 (NCI-H522 lung): 14.1 µM
TGI (NCI-H522 lung): 29.1 µM
GI50 (MOLT-4 leukemia): 15.1 µM
TGI (MOLT-4 leukemia): 40.9 µM
GI50 (A549 NSCLC): 35.3 µM
TGI (A549 NSCLC): > 100 µM
GI50 (CCRF-CEM leukemia): 2.21 µM
TGI (CCRF-CEM leukemia): 5.3 µM
GI50 (NCI-H226 lung): > 100 µM
TGI (NCI-H226 lung): > 100 µM
GI50 (HOP-92 NSCLC): 18.1 µM
TGI (HOP-92 NSCLC): 34.1 µM
GI50 (EKVX NSCLC): > 100 µM
TGI (EKVX NSCLC): > 100 µM
GI50 (M14 melanoma): > 100 µM
TGI (M14 melanoma): > 100 µM
GI50 (PC-3 prostate): 39.1 µM
TGI (PC-3 prostate): > 100 µM
GI50 (HCC-2998 colon): > 100 µM
TGI (HCC-2998 colon): > 100 µM
GI50 (SNB-19 CNS): > 100 µM
TGI (SNB-19 CNS): > 100 µM
GI50 (HT29 colon): 25.7 µM
TGI (HT29 colon): 68.1 µM
GI50 (SK-MEL-28 melanoma): 87.8 µM
TGI (SK-MEL-28 melanoma): > 100 µM
GI50 (MCF7 breast): 39 µM
TGI (MCF7 breast): > 100 µM
GI50 (SR leukemia): 1.91 µM
TGI (SR leukemia): 5.31 µM
GI50 (786-0 renal): 3.84 µM
TGI (786-0 renal): 14 µM
GI50 (OVCAR-3 ovarian): > 100 µM
TGI (OVCAR-3 ovarian): > 100 µM
GI50 (HCT-116 colon): 42.2 µM
TGI (HCT-116 colon): > 100 µM
GI50 (HOP-62 NSCLC): 94.9 µM
TGI (HOP-62 NSCLC): > 100 µM
GI50 (KM12 colon): > 100 µM
TGI (KM12 colon): > 100 µM
GI50 (SF-539 CNS): 11.5 µM
TGI (SF-539 CNS): 23.6 µM
GI50 (HS 578T breast): > 100 µM
TGI (HS 578T breast): > 100 µM
GI50 (NCI-H23 lung): 7.4 µM
TGI (NCI-H23 lung): > 100 µM
GI50 (UO-31 renal): 1.61 µM
TGI (UO-31 renal): 2.98 µM
GI50 (MALME-3M melanoma): 18.4 µM
TGI (MALME-3M melanoma): 49.6 µM
GI50 (RPMI-8226 leukemia): 5.19 µM
TGI (RPMI-8226 leukemia): 21.8 µM
GI50 (SK-MEL-2 melanoma): > 100 µM
TGI (SK-MEL-2 melanoma): > 100 µM
GI50 (HL-60(TB) leukemia): 11.9 µM
TGI (HL-60(TB) leukemia): 29 µM
GI50 (K-562 leukemia): 36.7 µM
TGI (K-562 leukemia): > 100 µM
GI50 (LOX IMVI melanoma): 1.52 µM
TGI (LOX IMVI melanoma): 2.95 µM
GI50 (SN12C renal): 35 µM
TGI (SN12C renal): > 100 µM
GI50 (SF-295 CNS): 12.5 µM
TGI (SF-295 CNS): 28.5 µM
GI50 (SF-268 CNS): 40.7 µM
TGI (SF-268 CNS): > 100 µM
GI50 (NCI-H460 lung): > 100 µM
TGI (NCI-H460 lung): > 100 µM
GI50 (U251 CNS): 79.5 µM
TGI (U251 CNS): > 100 µM
GI50 (DU-145 prostate): 49.2 µM
TGI (DU-145 prostate): > 100 µM
GI50 (OVCAR-8 ovarian): 55.5 µM
TGI (OVCAR-8 ovarian): > 100 µM
GI50 (CAKI-1 renal): 48.3 µM
TGI (CAKI-1 renal): > 100 µM
GI50 (A498 renal): 24.1 µM
TGI (A498 renal): 50.3 µM
GI50 (SNB-75 CNS): > 100 µM
TGI (SNB-75 CNS): > 100 µM
GI50 (NCI/ADR-RES ovarian): 81.5 µM
TGI (NCI/ADR-RES ovarian): > 100 µM
GI50 (BT-549 breast): 19.8 µM
TGI (BT-549 breast): 75.5 µM
GI50 (T-47D breast): 66.8 µM
TGI (T-47D breast): > 100 µM
GI50 (COLO 205 colon): > 100 µM
TGI (COLO 205 colon): > 100 µM
GI50 (SW-620 colon): 79.3 µM
TGI (SW-620 colon): > 100 µM
GI50 (UACC-62 melanoma): > 100 µM
TGI (UACC-62 melanoma): > 100 µM
GI50 (SK-OV-3 ovarian): 18.8 µM
TGI (SK-OV-3 ovarian): 39.3 µM
GI50 (MDA-MB-435): > 100 µM
TGI (MDA-MB-435): > 100 µM
GI50 (SK-MEL-5 melanoma): 54.6 µM
TGI (SK-MEL-5 melanoma): > 100 µM
GI50 (MDA-MB-231 breast): 60.1 µM
TGI (MDA-MB-231 breast): > 100 µM
GI50 (ACHN renal): 3.61 µM
TGI (ACHN renal): > 100 µM
GI50 (IGROV1 ovarian): 2.97 µM
TGI (IGROV1 ovarian): 12.1 µM
GI50 (OVCAR-5 ovarian): 63.6 µM
TGI (OVCAR-5 ovarian): > 100 µM
GI50 (RXF 393 renal): 19.4 µM
TGI (RXF 393 renal): 62.6 µM
GI50 (HCT-15 colon): 49 µM
TGI (HCT-15 colon): > 100 µM
GI50 (OVCAR-4 ovarian): 57.2 µM
TGI (OVCAR-4 ovarian): > 100 µM
GI50 (UACC-257 melanoma): 57.4 µM
TGI (UACC-257 melanoma): > 100 µM

Reference: PubChem BioAssay (NCI)
